How the values were obtained:
[1] = tested on: human endothelial cells; experiment: F-actin cytoskeletal organization, activated β1 integrin and vinculin distribution (phalloidin, confocal); assay type: cell-based; details: 3-D fibrin gel, 2 days, 50 μM blebbistatin
Description: To further study the effects of Fn matrix inhibition, additional cytological processes associated with angiogenesis were examined. Endothelial cells were cultured within 3-D or 2-D fibrin gels in the presence of the FUD or Del 29 peptides for 2 days. F-actin cytoskeletal organization was monitored following staining with Alexa 488-conjugated phalloidin. Cells also were stained with an antibody against activated β1 integrin or transfected with a GFP-tagged vinculin expression vector (pRK-vinculin-EGFP) to study distribution. Following counterstaining with Alexa 594-labeled phalloidin, fluorescence was monitored by confocal laser microscopy.
In the absence of Fn fibrillogenesis, an impaired ability of embedded endothelial cells to generate myosin-dependent forces and increase cytoplasmic stiffness was predicted to affect both Fn unfolding, as well as the ability of the cells to properly register the mechanical properties of the surrounding substratum (Wu et al. 1995. Cell, 83(5): 715-724; Zhong et al. 1998. J. Cell Biol., 141(2): 539-551; Baneyx et al. 2002. Proc. Natl. Acad. Sci. USA, 99(8): 5139-5143; Discher et al. 2005. Science, 310(5751): 1139-1143; Engler, supra; and Yoneda, supra). As such, the rheologic and functional characteristics of endothelial cells were assessed in the presence of the specific myosin ATPase inhibitor, blebbistatin. […]

[2] = tested on: human endothelial cells; experiment: Tubulogenesis (patent tubules) in 3-D fibrin gel; assay type: cell-based; details: 50 μM blebbistatin
Description: (§1) Endothelial cells were isolated from human umbilical cord veins by collagenase digestion and cultured in Medium 199 (Gibco) containing 20% human serum, 50 μg/ml endothelial cell growth supplement (BD Biosciences), 100 U/ml penicillin, and 100 μg/ml streptomycin (Hiraoka et al. 1998. Cell, 95(3): 365-377). […]
(§2) (Chernousov et al. 1991. J. Biol. Chem., 266(17): 10851-10858; Tomasini-Johansson et al. 2001. J. Biol. Chem., 276(26): 23430-23439; Mao and Schwarzbauer. 2005. Matrix Biol., 24(6): 389-399; and Tomasini-Johansson et al. 2006. Matrix Biol., 25(5): 282-293). […] Cell number in 3-D cultures was determined by hemacytometry after dissolving gels with 2 mg/ml bacterial collagenase (Worthington) while the number of patent tubules was determined in randomly selected cross-sections. Fn matrix assembly and cell morphology were monitored by confocal laser microscopy. To examine cell migration, endothelial cells were embedded in a 100 μl fibrin gel for 2 hours, then placed within a 500 μl gel for 8 days in the presence of Del29, FUD, control IgG, or L8, after which migration from the inner gel was assessed.

[3] = tested on: human endothelial cells; experiment: Cell morphology, migration and cell number of endothelial cells in 3-D fibrin gel; assay type: cell-based; details: 2 days, 50 μM blebbistatin
Description: as §1
The effect of Fn matrix assembly, or lack thereof, on endothelial cell function during neovascularization was assessed. […]
as §2, with “assessed. […]” for “assessed.”

[4] = tested on: Human umbilical vein endothelial cells; experiment: Cytoskeletal organization (F-actin, β-tubulin, vimentin) and isometric tension/contractile force; assay type: cell-based; details: 3-D culture, VEGF/HGF-stimulated, blebbistatin or nocodazole
Description: This process can be recapitulated in vitro by embedding serum-supplemented human endothelial cells within a 3-D fibrin gel in the presence of the pro-angiogenic factors, VEGF and HGF. Human umbilical vein endothelial cells were isolated from umbilical cords by perfusion of the umbilical vein with type 3 collagenase (Worthington, Lakewood, N.J.) and cultured in Medium-199 (Invitrogen, Carlsbad, Calif.) with 20% human serum and 50 μg/ml endothelial cell growth supplement (ECGS; BD Biosciences, Franklin Lakes, N.J.). For 3-D culture, endothelial cells were suspended in a solution of thrombin and aprotinin (Sigma, St. Louis, Mo.) and mixed 1:1 with a solution of 6 mg/ml fibrinogen (Calbiochem, Gibbstown, N.J.). Vasculogenesis was triggered by treatment with 100 ng/ml VEGF, 50 ng/ml HGF (Genentech, San Francisco, Calif.).
VEGF/HGF-stimulated endothelial cells were treated with either (a) blebbistatin to inhibit myosin ATPase function, or (b) nocodazole to prevent microtubule assembly under 3-D culture conditions (Salpingidou et al., 2007. J. Cell Biol., 178: 897-904; Zhou et al., supra).

[5] = tested on: chorioallantoic membrane (CAM) of live chicks; experiment: Chick chorioallantoic membrane (CAM) angiogenesis into 3-D matrices; assay type: in vivo; details: 3 days, VEGF and HGF, versus Del29 control
Description: The functional role for fibrillogenesis in tissue sites undergoing active angiogenesis in vivo was assessed. To this end, 3-D composite gels of fibrin and type I collagen were placed atop the chorioallantoic membrane (CAM) of live chicks, and angiogenesis was initiated in the presence of FUD or the Del29 peptide control. In particular, 3-D matrices of type I collagen or a type I collagen/fibrin composite matrix were cast in transwell tissue culture inserts (24 well size) perforated with a 25 gauge needle. A 30 μl Matrigel (BD Biosciences) reservoir was placed atop the matrix containing 200 ng VEGF, 100 ng HGF, and either Del29 or FUD. The entire apparatus was placed atop the dropped CAM of 10-11 day old fertile chicken eggs. Following incubation in a humidified incubator at 37° for 3 days, the matrices were harvested. Vascular ingrowth was monitored by light microscopy following H&E staining. In some experiments, FITC-Fn (McKeown-Longo and Mosher. 1985. J. Cell. Biol., 100(2): 364-74) was supplemented in the matrices during the culture period, and Fn fibrillogenesis within the gels was monitored by confocal laser microscopy.

| Compound | cytoskeletal architecture reorganization [1] | endothelial cell tubulogenesis [2] | cell shape change [3] | contractile force exerted on the 3-D ECM [4] | Fn matrix assembly in ECM construct [5] | neovessel formation (vascular ingrowth) [5] |
| --- | --- | --- | --- | --- | --- | --- |
| Cc1ccc2c(c1)C(=O)C1(O)CCN(c3ccccc3)C1=N2 (stereo not drawn) [blebbistatin] | did not reorganize | blocked completely | failed to undergo | impairing |  |  |
| FUD: 49-residue functional upstream domain of Streptococcus pyogenes F1 adhesion protein, SEQ ID NO: 10; fibronectin fibril assembly inhibitor (KDQSPLAGESGETEYITEVYGNQQNPVDIDKKLPNETGFSGNMVETEDT; Streptococcus pyogenes; Functional Upstream Domain (FUD) of F1 adhesion protein) |  |  |  |  | almost completely inhibited | ablated |

From patent US8697081B2, “Method of modulating neovascularization” (The Regents of the University of Michigan, priority 2008, dated 2014)
